Consider six compounds from US20260216352A1, “DIRECTED BIOSYNTHESIS OF MODIFIED ANTHRAQUINONE-FUSED ENEDIYNES AS POTENTIAL CANCER THERAPEUTICS” (The Johns Hopkins University, priority 2023, published 2026).

Data set [1] is classed as physicochemical. The source says:
With the indication that substituents larger than two carbons probably are not tolerated by the mutasynthetic approach, we focused on repurposing the methyl ketone to generate other smaller substituents. […] Removal of the acetyl protecting group in refluxing HCl-ethanol solution provided the 9-amino-5-iodoanthracene-g-thiolactone 45 (Scheme 4). Incorporation of 45 in a Δorf15 fermentation was again successful, as hoped, producing deshydroxy amino-DYN analogue 50 as the major product, accompanied by the low production of the desdihydroxy DYN analogue 51 (FIG. 31).

The subject of data set [2] is cancer cells. The conditions noted are these: read-out: In vitro IC50; cited from earlier work.
Data set [3] concerns transplantable cervical carcinoma HeLa, leukemia P388, L-1210 and melanoma B16. The note with it: cited from earlier work.
Data set [4] has as its system wild type M. chersina. In words: Small-scale supplementation of wild type M. chersina fermentation and analysis of dynemicin A production. The arrangement: species or system Micromonospora chersina. The conditions noted are these: for Restoration of Dyn production: wild type M. chersina, no added NaI / sodium halide in the fermentation medium. The method, then:
Samples cut from medium 53 agar were used to inoculate 50 mL liquid medium 53 cultures. The cultures were shaken at 28° C. for seven days. Then, samples from these vegetative cultures were used to inoculate H881 media (10 g/L soluble starch, 5 g/L Pharmamedia, 1 g/L CaCO3, 0.05 g/L CuSO4·5 H2O and 0.0005 g/L NaI) for fermentation. These cultures were then shaken at 28° C. for 7 days.
Samples (5 mL) of fermentations were extracted with 5 mL of ethyl acetate by vortexing the emulsion for one minute and separating the layers by centrifugation at 4000×g. The ethyl acetate layer (4 mL) was isolated and dried by SpeedVac at room temperature. The residue was then resuspended in 200 μL of dimethyl sulfoxide and filtered through 0.2 μm polytetrafluoroethylene filters for analysis on an Agilent 1200 HPLC equipped with a Phenomenex Prodigy ODS3 100 Å, 5 μm, 250×4.6 mm column. Injections were 30 μL and separated with a gradient method increasing from 5% to 95% acetonitrile supplemented with 0.1% formic acid over 40 min, followed by a 10 min hold at 95% acetonitrile before re-equilibration. The method was run at 1 mL/min and monitored at 280, 375, 450 and 570 nm.
Wild type M. chersina mycelial stock […] was plated on med 53, Lam et al., 1995, with 2% agar and grown at 28° C. After 7 d, mycelia from the plate were inoculated into 50 mL med 53 liquid fermentation medium in a 125 mL Erlenmeyer flask and shaken at 250 rpm at 28° C. for another 7 d. This starter culture (2 mL) was inoculated into 50-mL H881 liquid medium, Lam et al., 1995, with or without added NaI (0.5 mg/L) in 250-mL Erlenmeyer flask and shaken at 250 rpm and 28° C. After 24 h, […] of 2-mM stock solutions of 5, 13 and 25 in DMSO (sterile filtered using 0.2-μm PTFE filters) were added to the respective flasks with or without NaI supplementation to provide a final concentration of the added compounds of […]. After shaking at 250 rpm and 28° C. for another 2 d, Diaion® HP-20 (0.50 g, sterilized by autoclave) was added to each flask and shaking was continued for another 4 d. After a total 7 d of fermentation, 5 mL from each sample was extracted with 5 mL of EtOAc by vortexing for 1 min. Extracts were centrifuged at 4000×g and 4° C. for 5 min, and 4 mL of each EtOAc layer was dried by SpeedVac without heating. Samples were dissolved in 200 μL DMSO, filtered through 0.2 μm PTFE filters and analyzed on an Agilent 1200 HPLC using a Prodigy ODS3 100 Å, […], 250×4.6 mm column (Phenomenex). A gradient method of 5-95% ACN+0.1% (v/v) formic acid over 40 min, followed by 10 min hold at 95% ACN before column re-equilibration was used at a 1 mL/min flow rate to achieve separation of metabolites. Production of dynemicin and other related metabolites was monitored at 280 nm, 450 nm, and 570 nm. […]

On to `Nc1ccc2cc3c(I)ccc4c3c(c2c1)SC4=O` [Compound 45, 9-Amino-5-iodo-2H-anthra[9,1-bc]thiophen-2-one], for which the Oxidative stability result in data set [1] was “oxidatively unstable”.

Take Calicheamicins: the IC50 in data set [2] was 0.006 to 0.009 µM. The “In vivo ID50” value in data set [3] is 0.0005 to 0.0015 mg/kg.

Take `Nc1ccc2c3c(c4ccccc4cc13)SC2=O` [aminoanthracene 25, 5-Amino-2H-anthra[9,1-bc]thiophen-2-one]: the “Restoration of Dyn production” value in data set [4] is on record as “failed to rescue Dyn production”.

As for `O=C1Sc2c3ccccc3cc3c(I)ccc1c23` [iodoanthracene 5, 5-Iodo-2H-anthra[9,1-bc]thiophen-2-one], in data set [4], the “Restoration of Dyn production” value is given as “fully restored Dyn production”.

Take Neocarzinostatin: in data set [2], the IC50 was 0.225 to 0.9 µM. Also, in data set [3], the “In vivo ID50” value was 0.38 mg/kg.

As to `O=C1Sc2c3ccccc3cc3c(Br)ccc1c23` [bromoanthracene 13, 5-Bromo-2H-anthra[9,1-bc]thiophen-2-one], the “Effect on Dyn production” value in data set [4] (wild type M. chersina fermentation medium with added sodium iodide, increasing concentrations of 13) is given as “decrease Dyn production”. The “Restoration of Dyn production” value in data set [4] is “not restored”.

For orientation: IC50 means the concentration that gives 50% inhibition.
